Among the test systems are HOP-92; IGROV-1; SF-268; Malme-3M; HCT-116; SW-620; LOX IMVI; SK-MEL-5; SF-539; HOP-62; SK-MEL-28; SK-MEL-2; OVCAR-4; NCI-H226; TK-10; RXF 393; K562; SR; NCI-H460; SK-OV-3.
Assay in all cases: inhibition of tumour cell growth, NCI panel, 48 h

Each structure is given as a SMILES string.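 These data come from cells grown in 96-well plates and exposed to compound for 48 hours at five concentrations. Here, GI50 denotes the concentration required for 50% inhibition of growth.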 The source made the active and inactive calls. Cut-off read from the data, not from the text of the source: active = GI50 up to about 1.1 µM and inactive = higher. Where a SMILES comes first, the peptide text is derived from it. The star is where a group is joined. Boc = CC(C)(C)OC(=O)*; Bn = c1ccc(C*)cc1

In the case of `COc1cc2cc(C(=O)N3CC(COS(C)(=O)=O)c4ccc(O)cc43)[nH]c2c(OC)c1OC` (stereo not drawn), the GI50 was < 0.0001 µM (active) with HOP-92; 0.000158 µM (active) with IGROV-1; < 0.0001 µM (active) in the assay with SF-268; < 0.0001 µM (active) in the assay with Malme-3M; < 0.0001 µM (active) in the assay with HCT-116; < 0.0001 µM (active) with SW-620. Also, the GI50 in the assay on LOX IMVI, in the assay on SK-MEL-5, in the assay on SF-539, with HOP-62, with SK-MEL-28 and in the assay on SK-MEL-2 was < 0.0001 µM (active) throughout. Further, the GI50 was < 0.0001 µM (active) with OVCAR-4; 0.000109 µM (active) in the assay with NCI-H226; 0.000301 µM (active) with TK-10; < 0.0001 µM (active) with RXF 393; < 0.0001 µM (active) in the assay with K562; < 0.0001 µM (active) in the assay with SR.
As for `Cc1ccc(C)c(NC(=O)CC2C(=O)Nc3ccccc3S2(=O)=O)c1` (stereo not drawn), the GI50 is 38.8 µM (inactive) in the assay with HOP-92; 52.8 µM (inactive) with IGROV-1; 42.7 µM (inactive) in the assay on SF-268; 31.5 µM (inactive) in the assay on Malme-3M; 52.2 µM (inactive) with HCT-116; 36.6 µM (inactive) in the assay on SW-620. The GI50 was 51.3 µM (inactive) in the assay with LOX IMVI; 27.7 µM (inactive) in the assay with SK-MEL-5; 25.5 µM (inactive) in the assay with SF-539; 72.9 µM (inactive) in the assay on SK-MEL-28; > 100 µM (inactive) in the assay with SK-MEL-2; 19 µM (inactive) with OVCAR-4. Besides, the GI50 with NCI-H226 was 36.8 µM (inactive); with TK-10, > 100 µM (inactive); in the assay with RXF 393 it was 27.9 µM (inactive); in the assay on K562 it was 53.1 µM (inactive); in the assay with SR it was 61 µM (inactive); in the assay with NCI-H460, > 100 µM (inactive).
Take `CCOC(=O)CCC(NC(=O)c1ccc(OCc2nc3cc(C(F)(F)F)ccc3nc2-c2ccccc2)cc1)C(=O)OCC` (stereo not drawn): the GI50 in the assay on SK-OV-3 was > 100 µM (inactive); with HOP-92 it was 79.6 µM (inactive); in the assay with IGROV-1 it was 75.2 µM (inactive); with SF-268, 37.3 µM (inactive); in the assay on Malme-3M it was 87.3 µM (inactive); in the assay with HCT-116 it was 52.2 µM (inactive). For the same compound, the GI50 is > 100 µM (inactive) in the assay with SW-620; > 100 µM (inactive) in the assay with LOX IMVI; 31.6 µM (inactive) in the assay with SK-MEL-5; > 100 µM (inactive) in the assay on SF-539; > 100 µM (inactive) in the assay with SK-MEL-28; 22 µM (inactive) in the assay with SK-MEL-2. Also, the GI50 in the assay with OVCAR-4 is 13.7 µM (inactive); in the assay on NCI-H226, 13 µM (inactive); in the assay with RXF 393, 85.7 µM (inactive); in the assay with K562 it was 46.6 µM (inactive); with SR it was 16.4 µM (inactive); in the assay on NCI-H460, 52.1 µM (inactive).
For `C(=C1/CCCCC([n+]2ccccc2)=N1)/c1ccccc1`, the GI50 in the assay with SK-OV-3, in the assay on HOP-92, in the assay with SF-268, in the assay with Malme-3M, with HCT-116 and with SW-620 was > 100 µM (inactive) throughout. The GI50 with LOX IMVI, with SF-539, in the assay with HOP-62, with SK-MEL-28, with SK-MEL-2 and with OVCAR-4 was > 100 µM (inactive) each time. The GI50 with NCI-H226, in the assay with RXF 393, in the assay on K562, in the assay with SR and in the assay on NCI-H460 was > 100 µM (inactive) throughout.
For `CCCCCCCCCCCCCCCCP(=O)(O)OCC(N)C(=O)O` (stereo not drawn), the GI50 was 56.1 µM (inactive) in the assay on SK-OV-3; 23.7 µM (inactive) in the assay on HOP-92; 14.1 µM (inactive) in the assay on IGROV-1; 27.7 µM (inactive) in the assay with SF-268; > 100 µM (inactive) with Malme-3M; 19.6 µM (inactive) in the assay on HCT-116. For the same compound, the GI50 with SW-620 is 28.7 µM (inactive); in the assay with LOX IMVI, 17.1 µM (inactive); with SK-MEL-5, 33 µM (inactive); in the assay with SF-539 it was 26.6 µM (inactive); in the assay on HOP-62, 23.4 µM (inactive); in the assay on SK-MEL-28, > 100 µM (inactive). The GI50 was 26.4 µM (inactive) in the assay with SK-MEL-2; 37.9 µM (inactive) with OVCAR-4; 25.5 µM (inactive) with NCI-H226; 33.7 µM (inactive) in the assay with RXF 393; > 100 µM (inactive) with K562; 13.7 µM (inactive) with SR. For the same compound, the GI50 with NCI-H460 is 22.8 µM (inactive).
Take `Cc1cccc(C)c1NC(=O)C(=O)C(C#N)c1ccccc1Cl` (stereo not drawn): the GI50 in the assay on SK-OV-3, in the assay on HOP-92, with IGROV-1, in the assay on SF-268, in the assay with Malme-3M and in the assay with HCT-116 was > 100 µM (inactive) in each case. In addition, the GI50 with SW-620, with SK-MEL-5, in the assay on SF-539, in the assay with HOP-62, in the assay with SK-MEL-28 and in the assay on SK-MEL-2 was > 100 µM (inactive) throughout. The GI50 in the assay on OVCAR-4, in the assay with NCI-H226, in the assay with TK-10, with RXF 393, in the assay on K562 and in the assay on SR was > 100 µM (inactive) in each case. Also, the GI50 in the assay with NCI-H460 was > 100 µM (inactive).
Consider `C(/c1ccco1)=c1/nc(-c2ccccc2)n2c1nc1ccccc12`, for which the GI50 is 22.4 µM (inactive) with SK-OV-3; 38.1 µM (inactive) in the assay with HOP-92; 11.3 µM (inactive) in the assay on IGROV-1; 31.4 µM (inactive) in the assay on SF-268; 16.4 µM (inactive) in the assay with Malme-3M; 15.5 µM (inactive) in the assay with HCT-116. The GI50 in the assay with SW-620 was 21.7 µM (inactive); in the assay with LOX IMVI, 42.4 µM (inactive); in the assay on SK-MEL-5 it was 20.6 µM (inactive); with SF-539 it was 24.3 µM (inactive); with HOP-62, 2.05 µM (inactive); in the assay on SK-MEL-2, 28.2 µM (inactive). In addition, the GI50 was 20.5 µM (inactive) in the assay on OVCAR-4; 9.48 µM (inactive) in the assay with NCI-H226; 34.8 µM (inactive) with TK-10; 20.2 µM (inactive) with RXF 393; 20.9 µM (inactive) in the assay with K562; 11.4 µM (inactive) with SR. Besides, in the assay on NCI-H460, the GI50 was 39.2 µM (inactive).
`O=C1c2ccccc2C(=O)c2c(O)c(NCCNCCO)cc(O)c21`: the GI50 in the assay with HOP-92 is 11.1 µM (inactive); with IGROV-1 it was 1.91 µM (inactive); in the assay on SF-268 it was 4.29 µM (inactive); in the assay on Malme-3M it was 12.1 µM (inactive); in the assay with HCT-116, 2.3 µM (inactive); in the assay on SW-620, 2.79 µM (inactive). The GI50 was 3.73 µM (inactive) in the assay on LOX IMVI; 3.44 µM (inactive) in the assay on SK-MEL-5; 4.93 µM (inactive) in the assay with SF-539; 3.93 µM (inactive) in the assay with HOP-62; 5.11 µM (inactive) in the assay with SK-MEL-28; 5.07 µM (inactive) in the assay with SK-MEL-2. For the same compound, the GI50 in the assay on OVCAR-4 was 2.99 µM (inactive); in the assay on NCI-H226, 3.83 µM (inactive); in the assay with TK-10 it was 5 µM (inactive); in the assay on RXF 393 it was 4.74 µM (inactive); in the assay on K562 it was 2.75 µM (inactive); in the assay with SR it was 2.2 µM (inactive). The GI50 with NCI-H460 was 3.34 µM (inactive).
Regarding `Cc1c2oc(=O)c(C#N)cc2c2ccccn12`, the GI50 was > 100 µM (inactive) in the assay on SK-OV-3; > 100 µM (inactive) with HOP-92; > 100 µM (inactive) with IGROV-1; > 100 µM (inactive) with SF-268; 97.3 µM (inactive) in the assay with Malme-3M; 37.6 µM (inactive) in the assay with HCT-116. In addition, the GI50 in the assay with SW-620 was > 100 µM (inactive); with LOX IMVI, 71.9 µM (inactive); in the assay on SK-MEL-5, > 100 µM (inactive); in the assay with SF-539 it was 81.7 µM (inactive); with SK-MEL-28, > 100 µM (inactive); in the assay on SK-MEL-2, > 100 µM (inactive). The GI50 in the assay on OVCAR-4, with NCI-H226, in the assay on TK-10, with RXF 393, in the assay on K562 and in the assay on SR was > 100 µM (inactive) throughout. Further, the GI50 in the assay with NCI-H460 was 32.5 µM (inactive).
For `Cc1ccc(-c2c(C#N)c(S)n(NS(=O)(=O)c3ccccc3)c(=O)c2C#N)cc1`, the GI50 is 66.5 µM (inactive) with SK-OV-3; 24.1 µM (inactive) in the assay with HOP-92; 23.7 µM (inactive) in the assay with IGROV-1; 35.7 µM (inactive) in the assay with Malme-3M; 26.9 µM (inactive) in the assay with HCT-116; 29 µM (inactive) with SW-620. The GI50 with LOX IMVI is 28.5 µM (inactive); in the assay with SK-MEL-5, 25 µM (inactive); with SF-539, 20.6 µM (inactive); with SK-MEL-28 it was > 100 µM (inactive); in the assay with SK-MEL-2 it was 43.8 µM (inactive); in the assay with OVCAR-4, 34.4 µM (inactive). Moreover, the GI50 was 17.9 µM (inactive) with NCI-H226; 21.4 µM (inactive) with TK-10; 41.1 µM (inactive) with RXF 393; 33.6 µM (inactive) in the assay on K562; 15.1 µM (inactive) in the assay with SR; 15.6 µM (inactive) in the assay on NCI-H460.
Regarding `COC(=O)C(CC(C)C)NC(=O)CNC(=O)C(Cc1ccc(OCc2ccccc2)cc1)NC(=O)C(COCc1ccccc1)NC(=O)OC(C)(C)C` (stereo not drawn) (Boc-S(Bn)Y(Bn)GL-OMe; configuration not given here), the GI50 in the assay on SK-OV-3, with HOP-92, with IGROV-1, in the assay on SF-268, in the assay on Malme-3M and in the assay with HCT-116 was > 100 µM (inactive) each time. Further, the GI50 was > 100 µM (inactive) with SW-620; 58.5 µM (inactive) in the assay with LOX IMVI; > 100 µM (inactive) with SK-MEL-5; > 100 µM (inactive) in the assay on SF-539; > 100 µM (inactive) in the assay with HOP-62; > 100 µM (inactive) with SK-MEL-28. The GI50 in the assay with OVCAR-4 is > 100 µM (inactive); in the assay on NCI-H226 it was > 100 µM (inactive); in the assay on TK-10, > 100 µM (inactive); in the assay with RXF 393, > 100 µM (inactive); in the assay on K562, 3.49 µM (inactive); in the assay on SR it was > 100 µM (inactive). Also, the GI50 in the assay with NCI-H460 is > 100 µM (inactive).

(Values after ChEMBL document CHEMBL1201862, “PubChem BioAssay data set” (2004).)
